From PubChem BioAssay (NCI)
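Assay format: 96-well plates, 48-hour exposure. Here, GI50 denotes the concentration required for 50% inhibition of growth. The concentration for full growth arrest is given as TGI.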

Experiments:
Assay in all cases: NCI anticancer screen, dose series, 48 h
[1] = system: CCRF-CEM leukemia
[2] = system: SK-MEL-2 melanoma
[3] = system: PC-3 prostate
[4] = system: UO-31 renal
[5] = system: BT-549 breast
[6] = system: TK-10 renal
[7] = system: COLO 205 colon
[8] = system: RXF 393 renal
[9] = system: NCI/ADR-RES ovarian
[10] = system: HOP-92 NSCLC
[11] = system: IGROV1 ovarian
[12] = system: OVCAR-8 ovarian
[13] = system: HCT-15 colon
[14] = system: SK-OV-3 ovarian
[15] = system: UACC-62 melanoma
[16] = system: ACHN renal
[17] = system: DU-145 prostate
[18] = system: MDA-MB-435
[19] = system: K-562 leukemia
[20] = system: SW-620 colon
[21] = system: OVCAR-3 ovarian
[22] = system: M14 melanoma
[23] = system: U251 CNS
[24] = system: MOLT-4 leukemia
[25] = system: OVCAR-4 ovarian
[26] = system: NCI-H522 lung
[27] = system: SF-268 CNS
[28] = system: EKVX NSCLC
[29] = system: RPMI-8226 leukemia
[30] = system: A549 NSCLC
[31] = system: SNB-19 CNS
[32] = system: HT29 colon
[33] = system: UACC-257 melanoma
[34] = system: 786-0 renal
[35] = system: MDA-MB-231 breast
[36] = system: A498 renal
[37] = system: OVCAR-5 ovarian
[38] = system: HCC-2998 colon
[39] = system: SK-MEL-5 melanoma
[40] = system: NCI-H23 lung
[41] = system: SK-MEL-28 melanoma
[42] = system: LOX IMVI melanoma
[43] = system: HOP-62 NSCLC
[44] = system: HS 578T breast
[45] = system: SN12C renal
[46] = system: MCF7 breast
[47] = system: T-47D breast
[48] = system: SNB-75 CNS
[49] = system: NCI-H460 lung
[50] = system: SF-539 CNS
[51] = system: KM12 colon
[52] = system: HL-60(TB) leukemia
[53] = system: SR leukemia
[54] = system: HCT-116 colon
[55] = system: SF-295 CNS
[56] = system: NCI-H226 lung
[57] = system: MALME-3M melanoma
[58] = system: CAKI-1 renal

SMILES: C=C1C(=O)O[C@H]2[C@H]1CC/C(COC(=O)N1CCC[C@H]1C(=O)Nc1ccc(OC)c(C(N)=O)c1O)=C\CC[C@@]1(C)O[C@@H]21
- GI50 [1]: 1.65 µM
- TGI [1]: 5.95 µM
- GI50 [2]: 6.58 µM
- TGI [2]: 34.4 µM
- GI50 [3]: 4.95 µM
- TGI [3]: 18.9 µM
- GI50 [4]: 2.11 µM
- TGI [4]: 8.97 µM
- GI50 [5]: 1.62 µM
- TGI [5]: 5.12 µM
- GI50 [6]: 1.92 µM
- TGI [6]: 7.16 µM
- GI50 [7]: 1.6 µM
- TGI [7]: 3.28 µM
- GI50 [8]: 1.2 µM
- TGI [8]: 2.79 µM
- GI50 [9]: 61 µM
- TGI [9]: > 100 µM
- GI50 [10]: 1.23 µM
- TGI [10]: 3.32 µM
- GI50 [11]: 2.82 µM
- TGI [11]: 9.13 µM
- GI50 [12]: 4.73 µM
- TGI [12]: 26 µM
- GI50 [13]: 4.34 µM
- TGI [13]: 17.2 µM
- GI50 [14]: 20.9 µM
- TGI [14]: 65.6 µM
- GI50 [15]: 2.39 µM
- TGI [15]: 7.66 µM
- GI50 [16]: 2.9 µM
- TGI [16]: 10.9 µM
- GI50 [17]: 3.95 µM
- TGI [17]: 14.5 µM
- GI50 [18]: 3.8 µM
- TGI [18]: 15.9 µM
- GI50 [19]: 2.43 µM
- TGI [19]: 10.2 µM
- GI50 [20]: 1.64 µM
- TGI [20]: 4.01 µM
- GI50 [21]: 1.86 µM
- TGI [21]: 4.48 µM
- GI50 [22]: 1.89 µM
- TGI [22]: 4.19 µM
- GI50 [23]: 6.76 µM
- TGI [23]: 20.9 µM
- GI50 [24]: 2.24 µM
- TGI [24]: 5.63 µM
- GI50 [25]: 2.88 µM
- TGI [25]: 12.9 µM
- GI50 [26]: 1.68 µM
- TGI [26]: 4.07 µM
- GI50 [27]: 5.63 µM
- TGI [27]: 24.7 µM
- GI50 [28]: 4 µM
- TGI [28]: 32.9 µM
- GI50 [29]: 1.93 µM
- TGI [29]: 4.87 µM
- GI50 [30]: 14.7 µM
- TGI [30]: 35.1 µM
- GI50 [31]: 7.62 µM
- TGI [31]: 23.9 µM
- GI50 [32]: 3.24 µM
- TGI [32]: 11.1 µM
- GI50 [33]: 2.88 µM
- TGI [33]: 10.9 µM
- GI50 [34]: 2.27 µM
- TGI [34]: 6.56 µM
- GI50 [35]: 2.68 µM
- TGI [35]: 10.1 µM
- GI50 [36]: 9.17 µM
- TGI [36]: 22.6 µM
- GI50 [37]: 4.41 µM
- TGI [37]: 18.2 µM
- GI50 [38]: 8.61 µM
- TGI [38]: 23.3 µM
- GI50 [39]: 3.48 µM
- TGI [39]: 14.2 µM
- GI50 [40]: 5.44 µM
- TGI [40]: 22.6 µM
- GI50 [41]: 2.87 µM
- TGI [41]: 10.2 µM
- GI50 [42]: 1.39 µM
- TGI [42]: 3.23 µM
- GI50 [43]: 12.8 µM
- TGI [43]: 30.2 µM
- GI50 [44]: 17.9 µM
- TGI [44]: > 100 µM
- GI50 [45]: 2.96 µM
- TGI [45]: 10.3 µM
- GI50 [46]: 2.38 µM
- TGI [46]: 9.55 µM
- GI50 [47]: 2.42 µM
- TGI [47]: 6.7 µM
- GI50 [48]: 2.67 µM
- TGI [48]: 14.9 µM
- GI50 [49]: 11.4 µM
- TGI [49]: 29 µM
- GI50 [50]: 2.07 µM
- TGI [50]: 5.76 µM
- GI50 [51]: 5.53 µM
- TGI [51]: 20 µM
- GI50 [52]: 1.59 µM
- TGI [52]: 4.83 µM
- GI50 [53]: 1.59 µM
- TGI [53]: 12.7 µM
- GI50 [54]: 1.33 µM
- TGI [54]: 3.06 µM
- GI50 [55]: 12.1 µM
- TGI [55]: 27.4 µM
- GI50 [56]: 2.24 µM
- TGI [56]: 7.12 µM
- GI50 [57]: 2.42 µM
- TGI [57]: 6.54 µM

SMILES: C[C@@H]1CN(CC(=O)N2CC(C)(C)c3nc(CO)c(Cc4ccc(F)cc4)cc32)[C@@H](CN2CCOC[C@H]2C)CN1
- GI50 [1]: 31.3 µM
- TGI [1]: > 100 µM
- GI50 [2]: 5.01 µM
- TGI [2]: 63.9 µM
- GI50 [3]: 58.5 µM
- TGI [3]: > 100 µM
- GI50 [4]: > 100 µM
- TGI [4]: > 100 µM
- GI50 [5]: 0.162 µM
- TGI [5]: > 100 µM
- GI50 [6]: > 100 µM
- TGI [6]: > 100 µM
- GI50 [7]: 21.3 µM
- TGI [7]: 41.4 µM
- GI50 [9]: 75.5 µM
- TGI [9]: > 100 µM
- GI50 [10]: 3.79 µM
- TGI [10]: 19.7 µM
- GI50 [11]: > 100 µM
- TGI [11]: > 100 µM
- GI50 [12]: 32.1 µM
- TGI [12]: > 100 µM
- GI50 [13]: 31.4 µM
- TGI [13]: > 100 µM
- GI50 [14]: 0.0235 µM
- TGI [14]: 0.088 µM
- GI50 [15]: 23.6 µM
- TGI [15]: 65.8 µM
- GI50 [16]: > 100 µM
- TGI [16]: > 100 µM
- GI50 [17]: 82.1 µM
- TGI [17]: > 100 µM
- GI50 [18]: 37.1 µM
- TGI [18]: > 100 µM
- GI50 [20]: > 100 µM
- TGI [20]: > 100 µM
- GI50 [21]: > 100 µM
- TGI [21]: > 100 µM
- GI50 [22]: 18.6 µM
- TGI [22]: 37.9 µM
- GI50 [23]: 68.5 µM
- TGI [23]: > 100 µM
- GI50 [24]: 24.4 µM
- TGI [24]: 77.9 µM
- GI50 [25]: 20.6 µM
- TGI [25]: > 100 µM
- GI50 [26]: 21.8 µM
- TGI [26]: 71.6 µM
- GI50 [27]: 64.1 µM
- TGI [27]: > 100 µM
- GI50 [28]: 96.7 µM
- TGI [28]: > 100 µM
- GI50 [29]: 21.9 µM
- TGI [29]: 48 µM
- GI50 [30]: > 100 µM
- TGI [30]: > 100 µM
- GI50 [31]: > 100 µM
- TGI [31]: > 100 µM
- GI50 [32]: 22.2 µM
- TGI [32]: 49.2 µM
- GI50 [58]: > 100 µM
- TGI [58]: > 100 µM
- GI50 [33]: 15.3 µM
- TGI [33]: 31.1 µM
- GI50 [34]: 47.4 µM
- TGI [34]: > 100 µM
- GI50 [35]: 2.02 µM
- TGI [35]: 21.8 µM
- GI50 [36]: 25.8 µM
- TGI [36]: 96.2 µM
- GI50 [37]: > 100 µM
- TGI [37]: > 100 µM
- GI50 [38]: 17.1 µM
- TGI [38]: 32.4 µM
- GI50 [39]: 15 µM
- TGI [39]: 28.3 µM
- GI50 [40]: 51.8 µM
- TGI [40]: > 100 µM
- GI50 [41]: 18.6 µM
- TGI [41]: 37.5 µM
- GI50 [42]: 17.5 µM
- TGI [42]: 33.1 µM
- GI50 [43]: > 100 µM
- TGI [43]: > 100 µM
- GI50 [44]: 25 µM
- TGI [44]: > 100 µM
- GI50 [45]: 78.2 µM
- TGI [45]: > 100 µM
- GI50 [46]: 37 µM
- TGI [46]: > 100 µM
- GI50 [47]: 17.2 µM
- TGI [47]: 47.8 µM
- GI50 [48]: 19.7 µM
- TGI [48]: > 100 µM
- GI50 [49]: 45.9 µM
- TGI [49]: > 100 µM
- GI50 [50]: 6.85 µM
- TGI [50]: 23.6 µM
- GI50 [51]: 46.2 µM
- TGI [51]: > 100 µM
- GI50 [52]: 26.6 µM
- TGI [52]: 76.2 µM
- GI50 [53]: 18.9 µM
- TGI [53]: 73.3 µM
- GI50 [54]: 36.9 µM
- TGI [54]: > 100 µM
- GI50 [55]: 61.6 µM
- TGI [55]: > 100 µM
- GI50 [56]: > 100 µM
- TGI [56]: > 100 µM
- GI50 [57]: 16 µM
- TGI [57]: 31.1 µM
